The test system of one assay is ERK1/2. Briefly: Western blot of ERK and phosphorylated ERK. As to conditions: 100 mg/kg 4 weeks, 12 days after last injection. Type of assay: in vivo, mouse. The protocol: Phosphorylated Extracellular Signal-Regulated Protein Kinase (ERK) and Protein Kinase B (Akt) expression was measured by Western blot analysis in lymphocytes from fmr1 KO and wild-type animals administered ether vehicle or G-2MePE (100 mg/kg, i.p.; 28 days) treated in the behavior experiments as previously described (Lopez Verrilli et al. 2009). ERK is a classical MAPK signal transduction protein, responsible for growth factor transduction, proliferation, cytokine response to stress and apoptosis. […]
To conduct the western blots, antibodies were used against Akt ( 1/1000) (Cell Signaling), ERK1/2 ( 1/2000) (Cell Signaling), antiphospho-Akt ( 1/1000) and antiphospho-ERK ( 1/2000) (Cell Signaling). Total Akt and ERK 1/2 protein content (phosphorylated) were evaluated by blotting membranes with antiphospho-Akt ( 1/1000) and antiphospho-ERK antibodies ( 1/2000) (Cell Signaling). Akt or ERK phosphorylation was normalized to protein content in the same sample and expressed as % of change with respect to basal conditions, considering basal levels as 100%. Protein loading was evaluated by stripping and re-blotting membranes with b-actin antibody ( 1/1000) (Sigma Chemical Co.). […]
On the technique in general: Immunoblotting shows a protein as a band on a membrane.

The next assay deals with RTT iPSC-derived neurons. In words: In vitro human model of Rett Syndrome, iPSC-derived neurons (Example 14). Type of assay: cell-based. The following applies: 1 nM-10 μM for 1 week. As for the experimental part: RTT fibroblasts (carrying 4 distinct MeCP2 mutations) and control fibroblasts are generated from explants of dermal biopsies. The shRNA against target MeCP2 gene is cloned into the LentiLox3.7 lentivirus vector (as described in Marchetto et al.). The fibroblasts are infected with retroviral reprogramming vectors (Sox2, Oct4, c-Myc and Klf4). Two days after infection, fibroblasts are plated on mitotically inactivated mouse embryonic fibroblasts with hESC medium. After 2 weeks, iPSC colonies that emerge from the background of fibroblasts are manually picked and transferred to feeder-free conditions on matrigel-coated dishes (BD) using embryonic stem cell culture media mTeSR™ (Stem Cell Technologies) and passaged manually. Gene expression profiles of the generated clones are measured using human genome Affymetrix Gene Chip™ arrays to confirm that reprogramming is successful. […]
Cells are fixed in 4% paraformaldehyde and permeabilized with 0.5% Triton-X100 in PBS. […] Fluorescent signals are detected using a Zeiss inverted microscope and images are processed with Photoshop CS3. The following primary antibodies are used: TRA-1-60, TRA-1-81 (1:100), Nanog and Lin28 (1:500), human Nestin (1:100), Tuj-1 (1:500), Map2 (1:100); meCP2 (1:1000; VGLUT1 (1:200), Psd95 (1:500), GFP (1:200), Sox1 (1:250), Mushasil (1:200) and me3H3K27 (1:500). Cell soma size is measured using suitable software (e.g. ImageJ) after identification of neurons using the Syn::EGFP™. The morphologies of neuronal dendrites and spines are studied from an individual projection of z-stacks optical sections and scanned at 0.5 um increments that correlate with the resolution valued at z-plane. Each optical section is the result of 3 scans at 500 lps followed by Kalman filtering. For synapse quantification, images are taken by a z-step of 1 um using Biorad radiance 2100™ confocal microscope. Synapse quantification is done blinded to genotype. Only VGLUT1 puncta along Map2-positive processes are counted. […]

The text below walks through data of patent US20150224164A1, “TREATMENT OF AUTISM SPECTRUM DISORDERS USING GLYCYL-L-2-METHYLPROLYL-L-GLUMATIC ACID” (Neuren Pharmaceuticals Limited, priority 2013, published 2015).

Where a SMILES comes first, the peptide text is derived from it.

Regarding `C[C@@]1(C(=O)N[C@@H](CCC(=O)O)C(=O)O)CCCN1C(=O)CN` [Example G-2-MePE, Glycyl-L-2-methylprolyl-L-glutamic acid] (HELM PEPTIDE1{G.[C[C@@]1(C(=O)[*:2])CCCN1[*:1]].E}$$$$V2.0), the “phosphorylated ERK1/2 (pERK)” value with ERK1/2 (fmr1 KO vs vehicle, p<0.05) is listed as “significantly reduced”. Moreover, the “total ERK expression levels” value in the assay on ERK1/2 (fmr1 KO) was “increase in ERK expression levels”. Moreover, in the assay with RTT iPSC-derived neurons, the “frequency and amplitude of spontaneous post-synaptic currents, frequency of calcium transients” value was “normalizes”; the glutamatergic synapse numbers result is “significant increase”. Also, the VGLUT1 puncta number result in the assay with RTT iPSC-derived neurons (all concentrations) was “increase VGLUT1 puncta number”.
